13 compounds from US20230141603A1, “BENZODIAZEPINE DERIVATIVES AS GABA A GAMMA1 PAM” (Hoffmann-La Roche Inc., priority 2021, published 2023) can be followed below.

Structures are written as SMILES.

In test [1] the target is T1, h-GABAA α1β3γ2 (Homo sapiens, UniProt P14867+P18507).
T1 construct: expressed in transfected cells; host or cells: HEK293F cells, membranes
Nature of the test: Radioligand binding assay, [3H]Flumazenil competition, HEK293F membranes. Conditions: for γ2/γ1 Selectivity Ratio: Ki α1β3γ2 (nM)/Ki α2β2γ1 (nM); for LogSel: Log[Ki α1β3γ2 (nM)/Ki α2β2γ1 (nM)]. As to the method:
The affinity of compounds at GABAA γ2 subunit-containing receptors was measured by competition for [^3H]Flumazenil (81.1 Ci/mmol; Roche) binding to HEK293F cells expressing human (transiently transfected) receptors of composition α1β3γ2.
Harvested pellets from HEK293F cells expressing the different GABAA γ2 receptor subtypes were resuspended in Mannitol Buffer pH 7.2-7.4 and processed as described above for the cells expressing the GABAA γ1 subunit-containing receptors.
Assays were incubated to equilibrium for 1 hour at 4° C. and harvested onto GF/C uni-filters (Packard) by filtration using a Packard harvester and washing with ice-cold wash buffer (50 mM Tris; pH 7.5). After drying, filter-retained radioactivity was detected by liquid scintillation counting. Ki values were calculated using Excel-Fit (Microsoft) and are the means of two determinations.

Test [2] has as its target T2, h-GABAA α1β2γ1 (Homo sapiens, UniProt P14867+Q8N1C3).
T2 construct: expressed in transfected cells; host or cells: HEK293F cells (ThermoFisher R79007), membranes
T2 sequence (P14867 28-456): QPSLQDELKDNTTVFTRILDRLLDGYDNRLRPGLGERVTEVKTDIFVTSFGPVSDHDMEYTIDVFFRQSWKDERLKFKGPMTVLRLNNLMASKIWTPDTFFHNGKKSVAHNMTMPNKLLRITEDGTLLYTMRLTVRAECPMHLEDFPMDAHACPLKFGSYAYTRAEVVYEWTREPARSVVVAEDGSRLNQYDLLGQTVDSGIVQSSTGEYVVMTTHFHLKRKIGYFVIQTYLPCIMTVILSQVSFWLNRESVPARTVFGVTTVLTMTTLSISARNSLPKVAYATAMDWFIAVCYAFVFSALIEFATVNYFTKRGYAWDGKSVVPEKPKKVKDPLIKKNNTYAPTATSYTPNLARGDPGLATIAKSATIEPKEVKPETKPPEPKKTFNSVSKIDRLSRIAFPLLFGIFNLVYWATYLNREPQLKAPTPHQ
T2 sequence (P47870 25-512 partner limits assumed): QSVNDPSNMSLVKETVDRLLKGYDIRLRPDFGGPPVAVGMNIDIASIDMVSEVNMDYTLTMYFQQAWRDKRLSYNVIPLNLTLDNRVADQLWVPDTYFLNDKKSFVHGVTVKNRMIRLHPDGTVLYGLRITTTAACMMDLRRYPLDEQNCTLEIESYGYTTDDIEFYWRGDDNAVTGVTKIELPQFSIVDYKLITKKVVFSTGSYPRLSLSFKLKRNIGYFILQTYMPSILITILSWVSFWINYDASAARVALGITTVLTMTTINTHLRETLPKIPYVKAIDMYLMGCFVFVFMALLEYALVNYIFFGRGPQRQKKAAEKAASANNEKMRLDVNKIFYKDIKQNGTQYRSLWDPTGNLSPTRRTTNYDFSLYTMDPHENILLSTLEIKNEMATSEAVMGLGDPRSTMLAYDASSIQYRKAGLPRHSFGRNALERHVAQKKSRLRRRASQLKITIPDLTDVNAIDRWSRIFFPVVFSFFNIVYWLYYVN
T2 sequence (Q8N1C3 36-465): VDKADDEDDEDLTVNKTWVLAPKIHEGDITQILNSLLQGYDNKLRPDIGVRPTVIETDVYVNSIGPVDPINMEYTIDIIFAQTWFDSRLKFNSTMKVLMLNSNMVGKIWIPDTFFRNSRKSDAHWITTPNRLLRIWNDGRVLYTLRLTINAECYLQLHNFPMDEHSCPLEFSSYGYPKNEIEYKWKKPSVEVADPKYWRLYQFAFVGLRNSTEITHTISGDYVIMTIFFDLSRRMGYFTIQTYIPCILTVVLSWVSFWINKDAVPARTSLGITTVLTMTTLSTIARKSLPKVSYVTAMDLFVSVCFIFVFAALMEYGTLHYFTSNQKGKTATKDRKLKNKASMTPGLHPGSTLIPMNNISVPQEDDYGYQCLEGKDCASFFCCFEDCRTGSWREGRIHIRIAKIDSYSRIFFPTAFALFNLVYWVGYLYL
Nature of the test: Radioligand binding assay, [3H]RO7239181 competition, HEK293F membranes. As to the method:
The affinity of compounds at GABAA γ1 subunit-containing receptors was measured by competition for [^3H]RO7239181 (67.3 Ci/mmol; Roche) binding to membranes from HEK293F cells (ThermoFisher R79007) expressing human (transiently transfected) receptors of composition […], α2β2γ1, α1β2γ1.
Harvested pellets from HEK293F cells expressing the different GABAA receptor subtypes were resuspended in Mannitol Buffer pH 7.2-7.4 (Mannitol 0.29M, Triethylamine 10 mM, Acetic acid 10 mM, EDTA 1 mM plus protease inhibitors (20 tablets Complete, Roche Diagnostics Cat. No. 05 056 489 001 per liter)), washed two times and then resuspended at 1:10 to 1:15 dilution in the same buffer. Cell disruption was performed by stirring the suspension in a Parr vessel #4637 at 435 psi for 15 minutes, and then the suspensions were centrifuged at 1000×g for 15 minutes at 4° C. (Beckman Avanti J-HC; rotor JS-4.2). The supernatant (S1) was transferred in a 21 Schott flask and the pellet (P1) was resuspended with Mannitol Buffer up to 175 ml. The resuspended pellet was transferred into a 250 ml Corning centrifugal beaker and centrifuged at 1500×g for 10 minutes at 4° C. (Beckman Avanti J-HC; rotor JS-4.2). The supernatant (S1) was then transferred in the 21 Schott flask and the pellet was discarded. The supernatants (S1) were centrifuged in 500 ml Beckman polypropylene centrifugal beaker at 15′000×g for 30 minutes at 4° C. (Beckman Avanti J-20 XP; rotor JLA-10.500). The pellet (P2) was resuspended with Mannitol Buffer 1:1 and frozen at −80° C. The supernatant (S2) was centrifuged in 100 ml Beckman polypropylene centrifugal tubes at 48000×g for 50 minutes at 4° C. (Beckman Avanti J-20 XP; rotor JA-18). The supernatant (S3) was discarded and the pellet (P3) was resuspended with 1:1 Mannitol Buffer. The P2 and P3 protein concentration was determined with the BIORAD Standard assay method with bovine serum albumin as standard and measured on the NANO-Drop 1000. The membrane suspension was aliquots (500 μl per tube) and stored at −80° C. until required. Membrane homogenates were resuspended and polytronised (Polytron PT1200E Kinematica AG) in Potassium Phosphate 10 mM, KCl 100 mM binding buffer at pH 7.4 to a final assay concentration determined with a previous experiment.
Assays were incubated to equilibrium for 1 hour at 4° C. and then, membranes were filtered onto unifilter (96-well white microplate with bonded GF/C filters preincubated 20-50 minutes in 0.3% Polyethylenimine) with a Filtermate 196 harvester (Packard BioScience) and washed 4 times with cold Potassium Phosphate 10 mM pH 7.4, KCl 100 mM binding buffer. After drying, filter-retained radioactivity was detected by liquid scintillation counting. Ki values were calculated using Excel-Fit (Microsoft) and are the means of two determinations.

Regarding `Cc1nnc2n1-c1ccc(Br)c(Cl)c1C(c1c(F)cccc1F)=NC2` [Example 1, 8-bromo-7-chloro-6-(2,6-difluorophenyl)-1-methyl-4H-[1,2,4]triazolo[4,3-a][1,4]benzodiazepine], the Ki – broadly, a dissociation constant, usually derived from enzyme kinetics or from competition with a known ligand – was determined as 146 nM in test [1] and 11.3 nM in test [2]. The “γ2/γ1 Selectivity Ratio” value in test [1] (Table 1) and in test [1] (Table 3) was 18.3 throughout. In addition, the LogSel worked out at 1.26 in test [1] (Table 1) and 1.3 in test [1] (Table 3).
Take `Fc1ccccc1C1=NCc2nnc(C3CC3)n2-c2ccc(Br)c(Cl)c21` [Example 2, 8-bromo-7-chloro-1-cyclopropyl-6-(2-fluorophenyl)-4H-[1,2,4]triazolo[4,3-a][1,4]benzodiazepine]: in test [1], the Ki was found to be 486 nM. Besides, in test [1] (Table 1), the “γ2/γ1 Selectivity Ratio” value is recorded as 10.1 and the LogSel came out at 1.01. The compound also came in with an inhibitory constant (Ki) in test [2] of 77.5 nM.
The like results for `Fc1ccccc1C1=NCc2nnc(-c3cccnn3)n2-c2ccc(Br)c(Cl)c21` [Example 3, 8-bromo-7-chloro-6-(2-fluorophenyl)-1-pyridazin-3-yl-4H-[1,2,4]triazolo[4,3-a][1,4]benzodiazepine] were, in that order, 453 nM, 51.2, 1.71 and 26.1 nM.
In turn, `Cc1nnc2n1-c1ccc(Cl)c(Cl)c1C(c1ccccc1F)=NC2` [Example 4, 7,8-dichloro-6-(2-fluorophenyl)-1-methyl-4H-[1,2,4]triazolo[4,3-a][1,4]benzodiazepine] showed a Ki in test [1] of 795 nM. In addition, in test [1] (Table 1), the “γ2/γ1 Selectivity Ratio” value is listed as 12.1 and the LogSel was 1.08. In test [2], this compound returned a Ki of 103 nM.
The like results for `Cc1nnc2n1-c1ccc(Cl)c(Cl)c1C(c1c(F)cccc1F)=NC2` [Example 5, 7,8-dichloro-6-(2,6-difluorophenyl)-1-methyl-4H-[1,2,4]triazolo[4,3-a][1,4]benzodiazepine] were, in that order, 137 nM, 20.8, 1.32 and 8.2 nM.
On to `Cc1nnc2n1-c1ccc(C3CC3)c(Cl)c1C(c1c(F)cccc1F)=NC2` [Example 6, 7-chloro-8-cyclopropyl-6-(2,6-difluorophenyl)-1-methyl-4H-[1,2,4]triazolo[4,3-a][1,4]benzodiazepine], for which the Ki in test [1] turned out to be 965 nM; in test [2] it was 237 nM. Also, the “γ2/γ1 Selectivity Ratio” value in test [1] (Table 1) amounted to 10.3. Moreover, the LogSel in test [1] (Table 1) is 1.01.
In test [1], `Fc1cccc(F)c1C1=NCc2nncn2-c2ccc(Br)c(Cl)c21` [Example 7, 8-bromo-7-chloro-6-(2,6-difluorophenyl)-4H-[1,2,4]triazolo[4,3-a][1,4]benzodiazepine] had a Ki of 205 nM. Moreover, in test [1] (Table 1), the “γ2/γ1 Selectivity Ratio” value is 24.2 and the LogSel is recorded as 1.38. Besides, the Ki in test [2] turned out to be 9.1 nM.
In the case of `Fc1ccccc1C1=NCc2nncn2-c2ccc(Br)c(Cl)c21` [Example 8, 8-bromo-7-chloro-6-(2-fluorophenyl)-4H-[1,2,4]triazolo[4,3-a][1,4]benzodiazepine], in test [1], the affinity corresponds to a Ki of 576 nM. Besides, in test [1] (Table 1), the “γ2/γ1 Selectivity Ratio” value came to 12.1 and the LogSel was 1.08. In test [2], this compound yielded a Ki of 43.8 nM.
The like results for `O=c1[nH]nc2n1-c1ccc(Cl)c(Cl)c1C(c1c(F)cccc1F)=NC2` [Example 9, 7,8-dichloro-6-(2,6-difluorophenyl)-2,4-dihydro-[1,2,4]triazolo[4,3-a][1,4]benzodiazepin-1-one] were, in that order, 396 nM, 49.7, 1.70 and 7.3 nM.
On the same counts, the results for `Fc1ccccc1C1=NCc2nnc(-c3cccnn3)n2-c2ccc(Cl)c(Cl)c21` [Example 10, 7,8-dichloro-6-(2-fluorophenyl)-1-pyridazin-3-yl-4H-[1,2,4]triazolo[4,3-a][1,4]benzodiazepine] are 645 nM, 67.7, 1.83 and 25.8 nM.
Consider `OCc1nnc2n1-c1ccc(Br)c(Cl)c1C(c1c(F)cccc1F)=NC2` [Example 33, [8-bromo-7-chloro-6-(2,6-difluorophenyl)-4H-[1,2,4]triazolo[4,3-a][1,4]benzodiazepin-1-yl]methanol], for which the Ki in test [1] turned out to be 232 nM. In addition, in test [1] (Table 1), the “γ2/γ1 Selectivity Ratio” value stood at 18.2 and the LogSel came out at 1.26.
Take `Fc1cccc(F)c1C1=NCc2nncn2-c2ccc(C(F)(F)F)c(Cl)c21` [Example 37, 7-chloro-6-(2,6-difluorophenyl)-8-(trifluoromethyl)-4H-[1,2,4]triazolo[4,3-a][1,4]benzodiazepine]: in test [1], the Ki came to 1180 nM. In addition, in test [1] (Table 1), the “γ2/γ1 Selectivity Ratio” value worked out at 28.5 and the LogSel amounted to 1.45.
Turning to `COc1nnc2n1-c1ccc(Cl)c(Cl)c1C(c1c(F)cccc1F)=NC2` [Example 90, 7,8-dichloro-6-(2,6-difluorophenyl)-1-methoxy-4H-[1,2,4]triazolo[4,3-a][1,4]benzodiazepine], in test [1], the Ki stood at 305 nM. In addition, in test [1] (Table 1), the “γ2/γ1 Selectivity Ratio” value is 52.8 and the LogSel was found to be 1.72.
